Source: US20070219214A1, “Dual NK2/NK3-antagonists, pharmaceutical compositions comprising them, and processes for their preparation” (Solvay pharmaceuticals GmbH, priority 2006, published 2007)
Read-outs that look alike come from different tables or passages of the source.

Columns and labels:
[1] = target: T1, NK3-receptor (Cavia porcellus, UniProt P30098); test: NK-3-receptor-antagonistic effectiveness in vivo, senktide-induced hypertension in guinea pigs; conditions: guinea pig; for ID50 (iv), inhibition of blood pressure / ID50 (po), inhibition of blood pressure: senktide 0.4 μg/kg i.v.; for ID50 (iv), inhibition of blood pressure: intravenous administration; for ID50 (po), inhibition of blood pressure: oral administration
T1 construct: from tissue; host or cells: whole animal (Dunkin Hartley guinea pigs), in vivo
T1 sequence (P30098 1-440): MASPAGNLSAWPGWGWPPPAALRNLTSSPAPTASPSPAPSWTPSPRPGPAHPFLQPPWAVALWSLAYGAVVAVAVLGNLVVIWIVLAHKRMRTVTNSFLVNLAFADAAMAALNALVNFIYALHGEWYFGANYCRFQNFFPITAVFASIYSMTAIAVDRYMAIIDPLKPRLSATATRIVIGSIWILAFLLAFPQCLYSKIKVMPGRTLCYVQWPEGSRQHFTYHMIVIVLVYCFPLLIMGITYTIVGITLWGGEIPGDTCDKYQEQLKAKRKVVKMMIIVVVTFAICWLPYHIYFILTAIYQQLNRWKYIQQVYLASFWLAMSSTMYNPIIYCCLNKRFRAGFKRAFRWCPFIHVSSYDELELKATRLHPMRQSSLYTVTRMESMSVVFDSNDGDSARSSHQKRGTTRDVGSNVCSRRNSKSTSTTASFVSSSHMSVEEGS
Description: 9. Determination of the NK-3-Receptor-Antagonistic Effectiveness of the Test Substances In Vivo (Reduction of Blood Pressure in Guinea-Pigs with Senktide-Induced Hypertension)
NK3 agonists increase the blood pressure in guinea pigs. The senktide-induced hypertension can be antagonized by administering compounds with NK3-antagonistic properties. Measuring the level of hypertension is indicative of the degree of activity of the test compounds. The effect of the tested compound is assessed in the same experiment to exclude an additional hypertensional effect.
Male Dunkin Hartley guinea pigs with a body weight between 450 and 550 g were anesthetized with Ketamin (200 mg/kg i.m.; Aescoket 10%) and the left carotid artery and left jugular vein were cannulated for blood pressure measurement and drug application, respectively. The animals were allowed to breathe spontaneously. Blood pressure was measured with a strain gauge transducer connected to a computer via an amplifier.
For oral administration, vehicle (1% methylcellulose) or test compound was administered in a dose volume of 5 ml/kg. Forty five minutes thereafter, anesthesia was induced and the carotid artery and jugular vein were cannulated.
For intravenous administration, the test compounds were dissolved in 40% hydroxypropyl-β-cyclodextrine (HPCD) containing 10% DMSO, diluted with saline and administered intravenously in cumulative dose ranges. A vehicle group of animals received the corresponding HPCD/DMSO solutions instead of the test compound. For oral administration, the test compound was suspended in 1% methylcellulose. A vehicle group of animals received the corresponding […] of the test compound.

[2] = target: T2, human NK3 receptor (Homo sapiens, UniProt P29371); test: Functional cellular test, Ca2+ measurements using aequorin for NK3 activity; type: cell-based; design: expressed in transfected cells; host or cells: cell line co-expressing mitochondrially targeted apoaequorin (CHO according to b76/b77); conditions: for Kb: read-out: pA2 data for NK3 (converted); for pA2 data for NK3: cell line with human NK3 receptor and apoaequorin, agonist senktide 5x10-8 M
T2 sequence (P29371 1-465): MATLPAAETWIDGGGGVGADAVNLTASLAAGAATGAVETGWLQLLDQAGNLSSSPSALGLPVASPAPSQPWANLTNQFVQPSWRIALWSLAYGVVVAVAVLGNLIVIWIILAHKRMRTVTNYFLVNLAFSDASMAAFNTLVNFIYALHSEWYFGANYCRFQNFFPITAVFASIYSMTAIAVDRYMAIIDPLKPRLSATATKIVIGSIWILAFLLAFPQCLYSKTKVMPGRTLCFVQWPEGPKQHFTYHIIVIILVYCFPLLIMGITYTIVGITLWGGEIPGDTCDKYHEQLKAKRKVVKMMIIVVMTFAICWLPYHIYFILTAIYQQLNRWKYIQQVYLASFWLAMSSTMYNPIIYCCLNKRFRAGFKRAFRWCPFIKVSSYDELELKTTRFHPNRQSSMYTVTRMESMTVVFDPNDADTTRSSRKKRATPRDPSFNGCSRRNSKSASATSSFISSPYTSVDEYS

[3] = target: T3, human NK2-receptor (Homo sapiens, UniProt P21452); test: Binding potency of the test substances to NK2-receptors in vitro ([3H]-SR 48968 displacement); design: expressed in transfected cells; host or cells: CHO cells (membrane preparation); conditions: human NK2-receptor in CHO cell membranes, [3H]-SR 48968 (saredutant), average of at least three measurements; for Ki: read-out: pKi, binding potency to NK2-receptors (converted)
T3 sequence (P21452 1-398): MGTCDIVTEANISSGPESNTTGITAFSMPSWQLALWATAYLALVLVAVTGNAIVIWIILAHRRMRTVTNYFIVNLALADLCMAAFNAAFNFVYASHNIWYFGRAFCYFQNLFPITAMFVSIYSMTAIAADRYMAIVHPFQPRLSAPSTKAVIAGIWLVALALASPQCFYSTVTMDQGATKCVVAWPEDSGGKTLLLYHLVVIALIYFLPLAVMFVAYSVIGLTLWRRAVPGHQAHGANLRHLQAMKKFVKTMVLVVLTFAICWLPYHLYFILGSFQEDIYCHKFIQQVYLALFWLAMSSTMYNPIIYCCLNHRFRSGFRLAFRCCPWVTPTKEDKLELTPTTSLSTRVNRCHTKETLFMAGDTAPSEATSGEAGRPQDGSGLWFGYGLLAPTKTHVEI
Summary of the method: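 Membranes from CHO cells stably expressing the receptor were incubated with [3H]-saredutant plus test compound, then filtered and counted by liquid scintillation. Nonspecific binding defined with 0.1 μmol/l unlabeled saredutant. IC50 from displacement converted to Ki via Cheng-Prusoff and reported as pKi, averaged over measurements.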

[4] = iv, read-out: ID50 (iv), inhibition of blood pressure

| Kb [2] [nM] | Ki [3] [nM] | pA2 data for NK3 [2] | pKi, binding potency to NK2-receptors [3] | SMILES | ED50 [1, 4] [mg/kg] | ED50 ([1]; po, read-out: ID50 (po), inhibition of blood pressure) [mg/kg] | ID50 (iv), inhibition of blood pressure [1] [mg/kg] | ID50 (po), inhibition of blood pressure [1] [mg/kg] |
| --- | --- | --- | --- | --- | --- | --- | --- | --- |
| 2.51 | 0.158 |  |  | CN(C)C(=O)C1(N2CCCCC2)CCN(CC[C@H](CN(C)C(=O)c2ccccc2)c2ccc(Cl)c(Cl)c2)CC1 [compound 1] | 0.256 | 6.38 |  |  |
|  |  | 8.1 | 9.2 | CN(C)C(=O)C1(N2CCCCC2)CCN(CC[C@H](CN(C)C(=O)c2cc(F)ccc2F)c2ccc(Cl)c(Cl)c2)CC1 [compound 15] |  |  | 0.3732 |  |
| 50.1 | 3.16 |  |  | CN(C)C(=O)C1(N2CCCCC2)CCN(CCC(CN(C)C(=O)c2cccnc2)c2ccc(Cl)c(Cl)c2)CC1 (stereo not shown) [compound 19] | 0.39 |  |  |  |
|  |  | 8.2 | 9.6 | CN(C)C(=O)C1(N2CCCCC2)CCN(CC[C@H](CN(C)C(=O)c2ccc(F)cc2)c2ccc(Cl)c(Cl)c2)CC1 [compound 4] |  |  | 0.7564 | 2.3313 |
|  |  | 8.1 | 8.7 | CN(C)C(=O)C1(N2CCCCC2)CCN(CC[C@H](CN(C)C(=O)c2cc(C#N)c3ccccc3c2)c2ccc(Cl)c(Cl)c2)CC1 [compound 11] |  |  | 1.0554 | 10 |
|  |  | 8.2 | 8.8 | CN(C)C(=O)C1(N2CCCCC2)CCN(CC[C@H](CN(C)C(=O)C2CCCCC2)c2ccc(Cl)c(Cl)c2)CC1 [compound 3] |  |  |  |  |
|  |  | 8.1 | 9.1 | CN(C)C(=O)C1(N2CCCCC2)CCN(CC[C@H](CN(C)C(=O)c2ccc(F)c(F)c2)c2ccc(Cl)c(Cl)c2)CC1 [compound 14] |  |  | 0.5168 | 6.811 |
|  |  | 8.0 | 9.0 | CN(C)C(=O)C1(N2CCCCC2)CCN(CC[C@H](CN(C)C(=O)c2ccc(F)cc2F)c2ccc(Cl)c(Cl)c2)CC1 [compound 13] |  |  | 0.5013 | <10 |
| 2 | 0.631 |  |  | CN(C)C(=O)C1(N2CCCCC2)CCN(CC[C@H](CN(C)C(=O)c2ccc(O)cc2)c2ccc(Cl)c(Cl)c2)CC1 [compound 6, 1′-{(3S)-3-(3,4-dichlorophenyl)-4-[(4-hydroxybenzoyl)-(methyl)amino]butyl}-N,N-dimethyl-1,4′-bipiperidine-4′-carboxamide] | 0.157 |  |  |  |
| 10 | 1.26 |  |  | CN(C)C(=O)C1(N2CCCCC2)CCN(CCC(CN(C)C(=O)c2ccc(Cl)nc2)c2ccc(Cl)c(Cl)c2)CC1 (stereo not shown) [compound 18] | 1.01 |  |  |  |
